This note sets out measurements from US11065616B2, “Methods of making microfluidic devices” (KING ABDULLAH UNIVERSITY OF SCIENCE AND TECHNOLOGY, priority 2015, dated 2021).

Molecules are shown by their SMILES.

The assay concerns Hela cells. The experiment in a line: Cytotoxicity of Doxorubicin concentrations generated by the microfluidic gradient generator (CCK-8). In kind it is cell-based, Human. The note with it: gradient 100-0 μg/ml DOX at the outlet ports, 24 h incubation, surface modified channels. The procedure: Hela cells were cultured in EMEM media supplemented with 10% fetal bovine serum (FBS) and 1% penicillin-streptomycin at 37° C. in a 5% CO2 humidified atmosphere. After cell detachment, the cell suspension was centrifuged, the pallet was collected, and cells were counted for further plating. Hela cells were seeded in 96 well plates at a density of 5×10^3/well. Alter 24 h, cells were treated with five different concentrations of the anticancer drug Doxorubicin (DOX) generated by the microfluidic gradient generator at a flow rate of 8.5 μl/min. The incubation of cells with test samples lasts for 24 h at 37° C. Then, the culture medium was discarded, and 100 μL of CCK8 solution in MEM media were added to each well and incubated for 4 h in darkness. The absorbance values were measured at […] using the xMark™ microplate absorbance spectrophotometer.
Two types of 3D printer resins (1) FormLabs clear and (2) Spot-Elastic were used to build microfluidic devices. The media for cell cultures were injected by passing the EMEM media through the reported microfluidic gradient generator, Both the inlets were fed with media for the first experiment. […] Doxorubicin was introduced to the cell culture after surface modification, and only one of the inlets was fed with Doxorubicin incorporated EMEM media and the other was fed with normal (Doxorubicin-free) EMEM media. […]

With `COc1cccc2c1C(=O)c1c(O)c3c(c(O)c1C2=O)C[C@@](O)(C(=O)CO)C[C@@H]3O[C@H]1C[C@H](N)[C@H](O)[C@H](C)O1` [DOX, Doxorubicin], the “cell viability versus DOX concentration (in words)” value is on record as “higher viability with a decrease in concentration of DOX”.
